# Results taken from ChEMBL document CHEMBL5380875, “Discovery of a Potent and Oral Available Complex I OXPHOS Inhibitor That Abrogates Tumor Growth and Circumvents MEKi Resistance” (J Med Chem, 2023).
# The source made the active and inactive calls. No cut-off for these calls is given here.
# Tests used:
# NCI-H460 [1] = assay: Inhibition of mitochondrial complex III in human NCI-H460 cells at 1 uM incubated for 12 hrs by seahorse XF96 metabolic flux analyzer relative to control; type: cell-based
# [2] = Toxicity in mouse xenografted with human NCI-H460 cells with high-OXPHOS assessed as reduction in body weight at 30 mg/kg, po bid administered for 18 days in presence of trametinib; type: organism-based; conditions: in vivo, 432 h, time 18 day
# NCI-H460 [3] = assay: Induction of apoptosis in human NCI-H460 cells with high-OXPHOS harboring KRAS Q61H mutant assessed as early apoptotic cells at 20 nM incubated for 72 hrs in presence of trametinib by Annexin V-FITC/propidium iodide staining based flow cytometry analysis (reference value: 1.95%); type: functional
# A549 [4] = assay: Inhibition of colony formation in human Trametinib-resistant A549 cells with high-OXPHOS incubated for 7 days by crystal violet staining based analysis; type: functional, cell-based; conditions: dose 25-100 nM, time 7.0 day
# [5] = Toxicity in mouse xenografted with human NCI-H460 cells with high-OXPHOS assessed as reduction in serum creatinine level at 30 mg/kg, po bid administered for 18 days; type: organism-based; conditions: in vivo, 432 h, time 18 day
# [6] = MRT (0 to 24 hrs) in ICR mouse at 10 mg/kg, po measured for 24 hrs by LC-MS/MS analysis; type: ADME, organism-based; conditions: in vivo
# NCI-H460 [7] = assay: Potentiation of trametinib-induced antitumor activity against human NCI-H460 cells with high-OXPHOS xenografted in mouse assessed as reduction in tumor volume at 30 mg/kg, po bid administered for 18 days and measured every 3 days by electronic caliper analysis; type: functional, organism-based; conditions: time 18.0 day
# NCI-H460 [8] = assay: Antitumor activity against human NCI-H460 cells with high-OXPHOS xenografted in mouse assessed as reduction in Ki67 expression at 30 mg/kg, po bid administered for 18 days in presence of trametinib by immunohistochemical analysis; type: functional, organism-based; conditions: time 18.0 day
# Cytochrome P450 3A4 = Cytochrome P450 3A4 (Homo sapiens, UniProt P08684); assay: Inhibition of CYP3A4 in human liver microsomes using midazolam as substrate; type: ADME, Microsome
# Chain of Cytochrome P450 3A4 (P08684 whole entry): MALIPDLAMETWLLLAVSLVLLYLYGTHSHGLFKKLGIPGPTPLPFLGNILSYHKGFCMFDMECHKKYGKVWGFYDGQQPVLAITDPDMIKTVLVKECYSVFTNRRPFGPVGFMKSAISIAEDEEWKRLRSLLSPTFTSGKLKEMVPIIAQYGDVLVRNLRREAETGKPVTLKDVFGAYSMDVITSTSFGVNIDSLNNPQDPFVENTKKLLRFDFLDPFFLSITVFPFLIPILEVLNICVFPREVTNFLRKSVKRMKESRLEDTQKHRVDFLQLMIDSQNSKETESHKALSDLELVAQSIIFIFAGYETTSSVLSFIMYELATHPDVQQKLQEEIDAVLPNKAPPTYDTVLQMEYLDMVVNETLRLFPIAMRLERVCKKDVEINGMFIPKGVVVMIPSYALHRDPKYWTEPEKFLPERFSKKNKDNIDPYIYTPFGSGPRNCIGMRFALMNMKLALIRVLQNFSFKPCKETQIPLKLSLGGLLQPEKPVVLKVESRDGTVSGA
# A549 [9] = assay: Potentiation of trametinib-induced cytotoxicity against human Trametinib-resistant A549 cells with high-OXPHOS harboring KRAS G12S mutant assessed as reduction in cell viability at 10 to 20 uM incubated for 72 hrs by CellTiter 96 cell proliferation assay; type: functional, cell-based; conditions: dose 10-20 µM
# Cytochrome P450 2D6 = Cytochrome P450 2D6 (Homo sapiens, UniProt P10635); assay: Inhibition of CYP2D6 in human liver microsomes; type: ADME, Microsome
# Chain of Cytochrome P450 2D6 (P10635 whole entry): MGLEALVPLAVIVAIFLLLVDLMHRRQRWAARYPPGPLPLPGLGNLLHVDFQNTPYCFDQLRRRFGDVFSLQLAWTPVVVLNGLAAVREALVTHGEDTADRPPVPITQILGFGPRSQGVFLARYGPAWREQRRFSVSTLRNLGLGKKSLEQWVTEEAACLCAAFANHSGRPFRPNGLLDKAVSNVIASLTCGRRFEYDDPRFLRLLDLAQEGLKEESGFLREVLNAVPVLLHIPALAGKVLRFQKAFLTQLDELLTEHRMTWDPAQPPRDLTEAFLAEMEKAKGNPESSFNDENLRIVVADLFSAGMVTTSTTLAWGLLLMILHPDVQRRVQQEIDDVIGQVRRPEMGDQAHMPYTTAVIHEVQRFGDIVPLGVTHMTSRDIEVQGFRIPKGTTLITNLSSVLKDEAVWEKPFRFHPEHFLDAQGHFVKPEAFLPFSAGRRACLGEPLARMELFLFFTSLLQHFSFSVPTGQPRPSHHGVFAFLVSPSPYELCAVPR
# NCI-H460 [10] = assay: Induction of apoptosis in human NCI-H460 cells with high-OXPHOS assessed as early apoptotic cells at 30 nM incubated for 48 hrs by Annexin V-FITC/propidium iodide staining based flow cytometry analysis (reference value: 3.55%); type: functional
# NCI-H441 = assay: Antiproliferative activity against human NCI-H441 cells with high-OXPHOS assessed as reduction in cell viability incubated for 5 days by CellTiter 96 cell proliferation assay; type: functional, cell-based; conditions: NCI-H441, 120 h
# NCI-H460 [11] = assay: Antitumor activity against human NCI-H460 cells with high-OXPHOS xenografted in mouse assessed as tumor growth inhibition at 30 mg/kg, po bid administered for 18 days and measured every 3 days by electronic caliper analysis; type: functional, organism-based; conditions: time 18.0 day
# NCI-H460 [12] = assay: Inhibition of mitochondrial respiration in human NCI-H460 cells with high-OXPHOS assessed as reduction in spare oxygen consumption rate capacity incubated for 12 hrs by seahorse XF96 flux analyzer; type: functional, cell-based; conditions: dose 50-200 nM
# [13] = Half life in ICR mouse at 10 mg/kg, po measured for 24 hrs by LC-MS/MS analysis; type: ADME, organism-based; conditions: in vivo
# NCI-H460 [14] = assay: Inhibition of mitochondrial respiration in human NCI-H460 cells with high-OXPHOS assessed as reduction in basal oxygen consumption rate incubated for 12 hrs by seahorse XF96 flux analyzer; type: functional, cell-based; conditions: dose 50-200 nM
# [15] = Tmax in ICR mouse at 10 mg/kg, po measured for 24 hrs by LC-MS/MS analysis; type: ADME, organism-based; conditions: in vivo
# [16] = Half life in ICR mouse at 1 mg/kg, iv measured for 24 hrs by LC-MS/MS analysis; type: ADME, organism-based; conditions: in vivo
# NCI-H460 [17] = assay: Inhibition of mitochondrial complex I NADH-ubiquinone oxidoreductase in human NCI-H460 cells at 1 uM incubated for 12 hrs by seahorse XF96 metabolic flux analyzer relative to control; type: cell-based
# NCI-H460 [18] = assay: Potentiation of trametinib-induced antitumor activity against human NCI-H460 cells with high-OXPHOS xenografted in mouse assessed as reduction in tumor weight at 30 mg/kg, po bid administered for 18 days and measured every 3 days by electronic caliper analysis; type: functional, organism-based; conditions: time 18.0 day
# [19] = Toxicity in mouse xenografted with human NCI-H460 cells with high-OXPHOS assessed as reduction in serum ALT level at 30 mg/kg, po bid administered for 18 days; type: organism-based; conditions: in vivo, 432 h, time 18 day
# [20] = Toxicity in mouse xenografted with human NCI-H460 cells with high-OXPHOS assessed as reduction in serum BUN level at 30 mg/kg, po bid administered for 18 days; type: organism-based; conditions: in vivo, 432 h, time 18 day
# NCI-H460 [21] = assay: Inhibition of colony formation in human NCI-H460 cells with high-OXPHOS harboring KRAS Q61H mutant incubated for 10 to 14 days in presence of trametinib by crystal violet staining based analysis; type: functional, cell-based; conditions: time 10-14 day
# [22] = AUC (0 to infinity) in ICR mouse at 1 mg/kg, iv measured for 24 hrs by LC-MS/MS analysis; type: ADME, organism-based; parameters: dose 1 mg/kg, time 24 hrs, route iv; conditions: in vivo
# NCI-H460 [23] = assay: Induction of apoptosis in human NCI-H460 cells with high-OXPHOS harboring KRAS Q61H mutant assessed as early apoptotic cells at 20 nM incubated for 72 hrs by Annexin V-FITC/propidium iodide staining based flow cytometry analysis (reference value: 1.95%); type: functional
# [24] = Cmax in ICR mouse at 10 mg/kg, po measured for 24 hrs by LC-MS/MS analysis; type: ADME, organism-based; parameters: time 24 hrs, dose 10 mg/kg, route po; conditions: in vivo
# NCI-H358 = assay: Inhibition of mitochondrial respiration in human NCI-H358 cells with low-OXPHOS assessed as reduction in oxygen consumption rate at 50 to 200 nM incubated for 12 hrs by seahorse XF96 flux analyzer; type: functional, cell-based; conditions: dose 50-200 nM
# [25] = MRT (0 to 24 hrs) in ICR mouse at 1 mg/kg, iv measured for 24 hrs by LC-MS/MS analysis; type: ADME, organism-based; conditions: in vivo
# A549 [26] = assay: Inhibition of mitochondrial respiration in human Trametinib-resistant A549 cell assessed as reduction in spare oxygen consumption rate capacity at 50 to 200 nM incubated for 12 hrs by seahorse XF96 flux analyzer; type: functional, cell-based; conditions: dose 50-200 nM
# [27] = Cytotoxicity against human MRC5 cells assessed as reduction in cell viability incubated for 5 days by CellTiter 96 cell proliferation assay; type: toxicity, cell-based
# [28] = Toxicity in mouse xenografted with human NCI-H460 cells with high-OXPHOS assessed as pathological changes in lung at 30 mg/kg, po bid administered for 18 days by H and E staining based analysis; type: organism-based; conditions: in vivo, 432 h, time 18 day
# NCI-H460 [29] = assay: Induction of apoptosis in human NCI-H460 cells with high-OXPHOS harboring KRAS Q61H mutant assessed as late apoptotic cells at 20 nM incubated for 72 hrs by Annexin V-FITC/propidium iodide staining based flow cytometry analysis (reference value: 5.68%); type: functional
# NCI-H460 [30] = assay: Induction of apoptosis in human NCI-H460 cells with high-OXPHOS assessed as late apoptotic cells at 30 nM incubated for 48 hrs by Annexin V-FITC/propidium iodide staining based flow cytometry analysis (reference value: 12.8%); type: functional
smiles,measurement,setting,value
Cc1c(C(=O)N2CCN(Cc3ccc(OCC(F)(F)F)cc3)CC2)nnn1Cc1ccc(C(=O)Nc2ccc(C(F)(F)F)cc2)nc1,inhibition,NCI-H460 [1],28.1%
same,Activity,[2],Non-Toxic
same,Activity,NCI-H460 [3],26.2%
same,inhibition,A549 [4],Dose-Dependent Effect
same,Activity,[5],Non-Toxic
same,MRT last at 24 h,[6],3 h
same,Activity,NCI-H460 [7],Active
same,Activity,NCI-H460 [8],Active
same,IC50,Cytochrome P450 3A4,> 50 µM
same,Activity,A549 [9],Active
same,IC50,Cytochrome P450 2D6,> 50 µM
same,Activity,NCI-H460 [10],7.08%
same,IC50,NCI-H441,0.0297 µM
same,inhibition,NCI-H460 [11],Active
same,inhibition,NCI-H460 [12],Dose-Dependent Effect
same,half-life,[13],2.5 h
same,inhibition,NCI-H460 [14],Dose-Dependent Effect
same,Tmax,[15],1 h
same,half-life,[16],2.3 h
same,inhibition,NCI-H460 [17],77.6%
same,Activity,NCI-H460 [18],Active
same,Activity,[19],Non-Toxic
same,Activity,[20],Non-Toxic
same,inhibition,NCI-H460 [21],Active
same,AUC(0-inf),[22],359 ng·h/mL
same,Activity,NCI-H460 [23],2.87%
same,Cmax,[24],618 ng/mL
same,inhibition,NCI-H358,inactive
same,MRT last at 24 h,[25],1.5 h
same,inhibition,A549 [26],Active
same,IC50 at 5 days,[27],> 10 µM
same,Activity,[28],Non-Toxic
same,Activity,NCI-H460 [29],16.2%
same,Activity,NCI-H460 [30],37.8%
